Measurements as given in patent publication US20070011757A1, “Transgenic rodents as animal models for modulation of B1 bradykinin receptor protein” (priority 2001, published 2007).

Key:
[1] = biological target: T1, endogenous B1 receptor (Rattus norvegicus, UniProt P97583); experiment: Autoradiography of [3H]DALK binding in brain and spinal cord sections of non-transgenic rats; settings: non-transgenic control rats, 0.3 nM radioligand
T1 construct: DALK in non-transgenic control rats; from tissue; host or cells: brain and spinal cord sections (and whole-brain homogenate) of non-transgenic Sprague-Dawley rats
T1 sequence (P97583 1-337): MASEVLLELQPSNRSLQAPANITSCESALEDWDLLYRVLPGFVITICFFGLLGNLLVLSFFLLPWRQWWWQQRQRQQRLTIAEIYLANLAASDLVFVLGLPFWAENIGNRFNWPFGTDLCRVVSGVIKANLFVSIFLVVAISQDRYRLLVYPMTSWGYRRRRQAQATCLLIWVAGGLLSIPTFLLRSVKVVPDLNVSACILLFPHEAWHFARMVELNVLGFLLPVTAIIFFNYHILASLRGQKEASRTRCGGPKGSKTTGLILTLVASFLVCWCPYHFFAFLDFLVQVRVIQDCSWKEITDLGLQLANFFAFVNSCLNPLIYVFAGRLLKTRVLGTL

[2] = biological target: T2, human B1 bradykinin receptor (Homo sapiens, UniProt P46663); experiment: 3H-DALK binding to membranes from transgenic rat brain tissue
T2 construct: from tissue; host or cells: whole-brain membranes of transgenic Sprague-Dawley rats carrying Construct #1
T2 sequence (P46663 1-353): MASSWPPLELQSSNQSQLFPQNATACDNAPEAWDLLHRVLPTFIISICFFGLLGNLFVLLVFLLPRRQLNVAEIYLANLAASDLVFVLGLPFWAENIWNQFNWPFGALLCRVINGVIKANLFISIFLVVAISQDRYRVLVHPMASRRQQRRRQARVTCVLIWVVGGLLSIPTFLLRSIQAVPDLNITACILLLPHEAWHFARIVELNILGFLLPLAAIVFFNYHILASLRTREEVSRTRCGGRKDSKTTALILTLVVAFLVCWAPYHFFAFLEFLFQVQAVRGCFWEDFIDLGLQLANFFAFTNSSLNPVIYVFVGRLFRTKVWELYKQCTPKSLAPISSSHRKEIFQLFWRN
Description: Also important in these assays is the low expression level of endogenous B1 receptor in neuronal tissue. Briefly, transgenic animals from line 0004, 0014, and 0015 (all females) were decapitated following anesthesia and the whole brain was removed, bisected sagitally and the entire 1⁄2 brain weighed. Weights were as follows: line 0004 (813 mg), line 0014 (851 mg), and 0015 (843 mg). The brain tissue was homogenized with a Polytron in ice cold 50 mM Tris-HCl, 1 mM EDTA, 1 mM o-phenanthroline, pH 7.4. The homogenate was centrifuged at 50,000×g for 20 minutes. The pellet was resuspended and homogenized a second time in Tris buffer, and the centrifugation step was repeated. The final pellet was resuspended in assay buffer (20 mM HEPES, 120 mM NaCl, 5 mM KCl, 1 mM o-phenanthroline, 0.2 uM of […] form and active metabolite of […] added to inhibit angiotensin converting enzyme), 100 μg/ml bacitracin, 3 μM amastatin, 1 μM phosphoramidon, 0.1% BSA, pH 7.4. The assay was carried out in a 0.5 ml volume at room temperature for sixty minutes with 10 mg wet weight tissue/tube. Total protein was determined using a Bio Rad DC assay kit. […] FIG. 9A, 9B and 9C show measurements of the amount of total, nonspecific and specific binding of ^3H-DALK to transgenic rat brain tissue which expresses human B1 bradykinin receptor. […] In contrast, no B1 receptor is detected in the brains of non-transgenic rats. The Ki values determined for three standard lead compounds in Line 0004 are very similar to those obtained at the cloned hB1 receptor expressed in CHO cells. Therefore, expression of the human B1 bradykinin receptor in Line 0004 has the properties expected for the human B1 receptor.

For [des-Arg^10, Leu^9]-Kallidin [^3H-DALK], the specific binding [1] was “did not show any specific binding signal”, the specific binding ([1]; listed as [H-3] DALK) was “no detectable specific binding” and the “affinity for the human B1 receptor relative to the rat B1 receptor” value [2] was “greater affinity”. For the same substance, the selectivity ([2]; printed as 'approximately 40 fold selective for this ligand') was “approximately 40 fold”, the “expression (specific binding of 3H-DALK, saturation binding)” value (shortened to “expression”) ([2]; transgenic rat Line 0004 brain membranes, FIG. 9A) was 40 fmol/mg protein and the “expression” value ([2]; transgenic rat Line 0014 brain membranes, FIG. 9B) was 4 fmol/mg protein. The “expression” value ([2]; transgenic rat Line 0015 brain membranes, FIG. 9C) was 7 fmol/mg protein and the “binding site in transgenic rats expressing the human B1 receptor” value ([2]; whole brain homogenate assay or receptor autoradiography of brain slices) was “readily detectable”.
